According to US20250034196A1, “ESTER DERIVATIVES OF N4-HYDROXYCYTIDINE AND USE THEREOF” (priority 2021, published 2025):

Columns and labels:
in vitro [1] = type: in vitro ADME; details: plasma
Experimental: (§1) Preparation of Solutions: Stock solution (10 mM) of each of test compounds was prepared in DMSO. The stock solution for each compound was then diluted into 100 μM with acetonitrile.
Plasma Incubations: Plasma incubations were conducted in duplicate in 96-well plate at 37° C. Plasma was prewarmed in a total volume of 198 μL for 5 min at 37° C., then added 2 μL of 100 μM test compound into an incubation well containing plasma, pipette-mixed to achieve a homogenous suspension and immediately transferred 20 μL incubate as a 0 min sample to wells in a “Quenching” plate followed by adding 200 μL of acetonitrile with metolazone as internal standard (IS) and pipette-mixing. At 2, 5, 60, and 90 min, pipette-mixed the incubate and serially transfer samples of 20 μL incubate per time point to wells in a separate “Quenching” plate followed by adding 200 μL of acetonitrile with metolazone as IS and pipette-mixing.
(§2) Sample Analysis: The 96-well plate was centrifuged at 6000 g for 10 min. The supernatant was injected onto the LC-MS/MS system for analysis.

in vitro [2] = type: in vitro ADME; details: microsomes; for half-life at 1 µM: pH 7.4
Experimental: as §1
(§3) Microsome Incubations: Incubation mixtures were prepared in a total volume of 200 μL with final component concentrations as follows: 0.1M PBS (pH 7.4), NADPH (2 mM) and liver microsomes (0.2 mg/mL) as well as test compound (1 μM) or Molnupiravir (1 μM) as a positive control, wherein the NADPH was added after a 5-min preincubation of all other components at 37° C. Pipette-mixed to achieve a homogenous suspension and immediately transferred 20 μL incubate as a 0 min sample to wells in a “Quenching” plate followed by adding 200 μL of acetonitrile with metolazone as IS and pipette-mixing. At 2, 5, 10, and 45 min, pipette-mixed the incubate and serially transfer samples of 20 μL incubate per time point to wells in a separate “Quenching” plate followed by adding 200 μL of acetonitrile with metolazone as IS and pipette-mixing.
as §2

Microsome stability = type: in vitro ADME, Monkey; details: monkey, microsomes, pH 7.4
Experimental: as §1, §3, §2

[3] = test system: SARS-CoV-2, Hongkong strain; type: in vivo, K18 hACE2 transgenic mice
in vivo = assay: in vivo; parameters: species or system Beagle Dogs; details: dog, po, 10 mg/kg; for AUC(0-inf): AUCINF of EX-1/NHC/CH2018; for AUC(0-t): AUClast of EX-1/NHC/CH2018; for Cmax: Cmax of EX-1/NHC/CH2018; for half-life: T1/2 of EX-1/NHC/CH2018; for Tmax: Tmax of EX-1/NHC/CH2018
Experimental: Example 174: Pharmacokinetic Study of EX-2 (CH2101), Molnupiravir (CH2017) and its Metabolite NHC (CH2018) Following a Single PO Administration of EX-2 (CH2101) or Molnupiravir (CH2017) in Male and Female Beagle Dogs
Both test compounds were prepared in 1% methyl cellulose (400 cps, SIGMA, SLCF9694) solution in purified water.
A total of 6 male+6 female Beagle Dogs, approximately 7-13 kg of bodyweight, were originally purchased from Marshall Biotechnology Co., Ltd. The animals were fasted overnight prior to dosing and food was re-provided after 4 hours post dosing.
The animals were restrained manually, and approximately 1 mL of blood at each time point was collected into pre-cooled EDTA-K2 tubes via cephalic or saphenous veins. Blood samples were centrifuged at 4° C. (4000 rpm. 5 min) to obtain plasma within 30 min after sample collection. All samples were stored at approximately −80° C. until analysis. The backup samples will be discarded after the in vivo experiment has been completed for two months unless requested.

[4] = Remdesivir 25 mpk SC twice daily

**Q.** For `O=C(ONc1ccn([C@@H]2O[C@H](CO)[C@@H](O)[C@H]2O)c(=O)n1)C1CC1` [EX-15], which half-life at 1 µM (in vitro [1]; dog) is on record?
**A.** Its half-life at 1 µM is 109 min.

**Q.** And the half-life at 1 µM (in vitro [1]; human)?
**A.** Its half-life at 1 µM is 5.8 min.

**Q.** What about the half-life at 1 µM (in vitro [1]; monkey) of the same compound?
**A.** The half-life at 1 µM was 16.5 min.

**Q.** And the half-life at 1 µM (in vitro [1]; mouse)?
**A.** Its half-life at 1 µM is 5.2 min.

**Q.** And the half-life at 1 µM (in vitro [1]; rat)?
**A.** The half-life at 1 µM was 88.9 min.

**Q.** What about the half-life at 1 µM (in vitro [2]; dog) of the same compound?
**A.** Its half-life at 1 µM is 132 min.

**Q.** What about the half-life at 1 µM (in vitro [2]; human) of the same compound?
**A.** The half-life at 1 µM was 67.3 min.

**Q.** And the half-life at 1 µM (in vitro [2]; mouse)?
**A.** The half-life at 1 µM was 15.4 min.

**Q.** What about the T1/2 (in vitro [2]; rat) of the same compound?
**A.** The T1/2 was “∞”.

**Q.** And the half-life at 1 µM (Microsome stability)?
**A.** Its half-life at 1 µM is 25 min.

**Q.** With `CC(C)C(=O)ONc1ccn([C@@H]2O[C@H](CO)[C@@H](O)[C@H]2O)c(=O)n1` [EX-3] as the compound, how does the half-life at 1 µM (in vitro [1]; dog) read?
**A.** The half-life at 1 µM was 21.2 min.

**Q.** And the half-life at 1 µM (in vitro [1]; human)?
**A.** The half-life at 1 µM was 2.8 min.

**Q.** What about the half-life at 1 µM (in vitro [1]; monkey) of the same compound?
**A.** Its half-life at 1 µM is 3.2 min.

**Q.** What about the half-life at 1 µM (in vitro [1]; mouse) of the same compound?
**A.** Its half-life at 1 µM is 0.6 min.

**Q.** And the half-life at 1 µM (in vitro [1]; rat)?
**A.** Its half-life at 1 µM is 25.9 min.

**Q.** What about the half-life at 1 µM (in vitro [2]; dog) of the same compound?
**A.** Its half-life at 1 µM is 33.8 min.

**Q.** What about the half-life at 1 µM (in vitro [2]; human) of the same compound?
**A.** Its half-life at 1 µM is 13.5 min.

**Q.** What about the half-life at 1 µM (in vitro [2]; mouse) of the same compound?
**A.** Its half-life at 1 µM is 6.8 min.

**Q.** And the half-life at 1 µM (in vitro [2]; rat)?
**A.** The half-life at 1 µM was 46.6 min.

**Q.** And the half-life at 1 µM (Microsome stability)?
**A.** The half-life at 1 µM was 4.4 min.

**Q.** Which results are given for `CCC(CC)COC(=O)[C@H](C)N[P@](=O)(OC[C@H]1O[C@@](C#N)(c2ccc3c(N)ncnn23)[C@H](O)[C@@H]1O)Oc1ccccc1` [Remdesivir]?
**A.** Survival proportions ([3]; 14-day study, twice daily days 0-6, CH2101 450 mg/kg PO, Remdesivir 25 mg/kg SC): 0%; Body weight loss observed from day [3, 4]: 2 days; Gross clinical symptoms appear from day [3, 4]: 6 days; Max clinical symptom score (mean value) [3, 4]: 2; Prolonged survival time ([3]; compared with vehicle group (group 1), Remdesivir 25 mg/kg SC): 20%; Virus titer in lung, comparison with Remdesivir group (mean difference) ([3]; day 5): 2.47; Virus titer in lung ([3]; day 5, plaque assay, mean, twice daily days 0-4, CH2101 450 mpk PO, Remdesivir 25 mpk SC): 5.11 Log 10 plaque#/g lung; Virus titer in lung, mean difference vs. group 1 (Vehicle group) ([3]; day 5, CH2101 450 mpk PO, Remdesivir 25 mpk SC): 0.83 Log; Body weight change ([3]; day 6, normalized to day 0, Remdesivir 25 mpk SC twice daily): −13.6%; Median survival time ([3]; twice daily days 0-6, CH2101 450 mg/kg PO, Remdesivir 25 mg/kg SC): 6 days

**Q.** Which AUC(0-inf) (in vivo; both sexes, beagle) does the source give for `O=c1nc(NO)ccn1[C@@H]1O[C@H](CO)[C@@H](O)[C@H]1O` [EX-1/NHC/CH2018, NHC] here?
**A.** Its AUC(0-inf) is 9680 ng·h/mL.

**Q.** And the AUC(0-t) (in vivo; both sexes, beagle)?
**A.** The AUC(0-t) was 9580 ng·h/mL.

**Q.** And the Cmax (in vivo; both sexes, beagle)?
**A.** The Cmax was 4780 ng/mL.

**Q.** And the half-life (in vivo; both sexes, beagle)?
**A.** Its half-life is 227 min.

**Q.** What about the Tmax (in vivo; both sexes, beagle) of the same compound?
**A.** The Tmax was 52.5 min.

**Q.** And the “AUCmale/female of EX-1/NHC/CH2018” value (in vivo; both, Beagle)?
**A.** Its value is 158%.

**Q.** What about the “AUCINF of EX-1/NHC/CH2018” value (in vivo; female, beagle) of the same compound?
**A.** Its value is 7683 ng·h/mL.

**Q.** And the “AUClast of EX-1/NHC/CH2018” value (in vivo; female, beagle)?
**A.** The value was 7632 ng·h/mL.

**Q.** And the “Cmax of EX-1/NHC/CH2018” value (in vivo; female, beagle)?
**A.** The value was 3940 ng/mL.

**Q.** And the “T1/2 of EX-1/NHC/CH2018” value (in vivo; female, beagle)?
**A.** Its value is 63.6 min.

**Q.** What about the AUC(0-inf) (in vivo; female, beagle) of the same compound?
**A.** The AUC(0-inf) was 7310 ng·h/mL.

**Q.** And the AUC(0-t) (in vivo; female, beagle)?
**A.** Its AUC(0-t) is 7220 ng·h/mL.

**Q.** And the Cmax (in vivo; female, beagle)?
**A.** The Cmax was 4550 ng/mL.

**Q.** And the half-life (in vivo; female, beagle)?
**A.** Its half-life is 76.8 min.

**Q.** What about the Tmax (in vivo; female, beagle) of the same compound?
**A.** The Tmax was 60 min.

**Q.** And the “AUCINF of EX-1/NHC/CH2018” value (in vivo; male, beagle)?
**A.** The value was 11046 ng·h/mL.

**Q.** What about the “AUClast of EX-1/NHC/CH2018” value (in vivo; male, beagle) of the same compound?
**A.** The value was 10957 ng·h/mL.

**Q.** And the “Cmax of EX-1/NHC/CH2018” value (in vivo; male, beagle)?
**A.** Its value is 5240 ng/mL.

**Q.** What about the “T1/2 of EX-1/NHC/CH2018” value (in vivo; male, beagle) of the same compound?
**A.** The value was 343 min.

**Q.** What about the “Tmax of EX-1/NHC/CH2018” value (in vivo; male, beagle) of the same compound?
**A.** The value was 30 min.

**Q.** What about the AUC(0-inf) (in vivo; male, beagle) of the same compound?
**A.** The AUC(0-inf) was 12700 ng·h/mL.

**Q.** What about the AUC(0-t) (in vivo; male, beagle) of the same compound?
**A.** Its AUC(0-t) is 12500 ng·h/mL.

**Q.** What about the Cmax (in vivo; male, beagle) of the same compound?
**A.** Its Cmax is 5380 ng/mL.

**Q.** What about the half-life (in vivo; male, beagle) of the same compound?
**A.** The half-life was 425 min.

**Q.** What about the Tmax (in vivo; male, beagle) of the same compound?
**A.** The Tmax was 60 min.

**Q.** Which half-life at 1 µM (in vitro [1]; dog) does the source give for `COC(C)(C)C(=O)ONc1ccn([C@@H]2O[C@H](CO)[C@@H](O)[C@H]2O)c(=O)n1` [EX-53] here?
**A.** Its half-life at 1 µM is 156 min.

**Q.** And the half-life at 1 µM (in vitro [1]; human)?
**A.** Its half-life at 1 µM is 4.8 min.

**Q.** And the half-life at 1 µM (in vitro [1]; monkey)?
**A.** Its half-life at 1 µM is 9.8 min.

**Q.** What about the half-life at 1 µM (in vitro [1]; mouse) of the same compound?
**A.** The half-life at 1 µM was 3.1 min.

**Q.** And the half-life at 1 µM (in vitro [1]; rat)?
**A.** Its half-life at 1 µM is 94.3 min.

**Q.** And the half-life at 1 µM (in vitro [2]; dog)?
**A.** Its half-life at 1 µM is 87.5 min.

**Q.** And the half-life at 1 µM (in vitro [2]; human)?
**A.** The half-life at 1 µM was 86.6 min.

**Q.** And the half-life at 1 µM (in vitro [2]; mouse)?
**A.** The half-life at 1 µM was 17.1 min.

**Q.** What about the half-life at 1 µM (in vitro [2]; rat) of the same compound?
**A.** Its half-life at 1 µM is 70.5 min.

**Q.** What about the half-life at 1 µM (Microsome stability) of the same compound?
**A.** The half-life at 1 µM was 7.3 min.
